ChEMBL document CHEMBL4715817, “Python Cathelicidin CATHPb1 Protects against Multidrug-Resistant Staphylococcal Infections by Antimicrobial-Immunomodulatory Duality” (J Med Chem, 2018)
In brackets after ≈: the same amount, converted by molar mass. Activity calls are given as the source filed them. No cut-off for these calls is given here. Peptide text beside a SMILES is read from it.

Columns and labels:
Nocardia asteroides = test: Antimicrobial activity against Nocardia asteroids incubated for 16 to 18 hrs by fluorescence microplate reader analysis; type: functional; settings: time 16-18 hrs
Candida albicans [1] = test: Antimicrobial activity against Candida albicans IS 08030102 incubated for 16 to 18 hrs by fluorescence microplate reader analysis; type: functional; settings: time 16-18 hrs
Staphylococcus aureus [2] = test: Antimicrobial activity against vancomycin resistant Staphylococcus aureus IS 08032810, incubated for 16 to 18 hrs by fluorescence microplate reader analysis; type: functional; settings: time 16-18 hrs
Klebsiella pneumoniae = test: Antimicrobial activity against Klebsiella pneumoniae IS 08B343 incubated for 16 to 18 hrs by fluorescence microplate reader analysis; type: functional; settings: time 16-18 hrs
Mus musculus [3] = test: Immunomodulatory activity in Kunming mouse infected with vancomycin-resistant Staphylococcus aureus assessed as decreased in IL-6 level in peritoneal lavage at 10 mg/kg, ip administered 4 hrs after infection by ELISA; type: functional, organism-based
Nakaseomyces glabratus = test: Antibiofilm activity against Candida glabrata assessed as biofilm eradication at BIC-5 by XTT and crystal violet staining assay relative to control; type: functional
Macrophage [4] = test: Immunomodulatory activity in mouse peritoneal macrophage assessed as inhibition of LPS-induced TNF-alpha level measured after 6 hrs by qRT-PCR analysis; type: functional, tissue-based; settings: dose 5-20 µg/ml
[5] = Toxicity in Kunming mouse assessed as effect on IL-1beta levels at 10 mg/kg, ip measured after 5 hrs by ELISA; type: organism-based; settings: in vivo
Bacillus cereus = test: Antimicrobial activity against Bacillus cereus incubated for 16 to 18 hrs by fluorescence microplate reader analysis; type: functional; settings: time 16-18 hrs
Staphylococcus aureus [6] = test: Antibacterial activity against vancomycin-resistant Staphylococcus aureus assessed as neutrophil-induced bacterial cell killing neutrophils pretreated with compound measured after 15 to 60 mins; type: functional, organism-based; settings: dose 10-40 µg/ml, time 15-60 min
Macrophage [7] = test: Immunomodulatory activity in mouse peritoneal macrophage assessed as inhibition of LPS-induced TNF-alpha level measured after 24 hrs by ELISA; type: functional, tissue-based; settings: dose 5-20 µg/ml
Macrophage [8] = test: Immunomodulatory activity in mouse peritoneal macrophage assessed as inhibition of LPS-induced IL-6 level measured after 24 hrs by ELISA; type: functional; settings: dose 5-20 µg/ml
Staphylococcus aureus [9] = test: In vivo antibacterial activity against vancomycin resistant Staphylococcus aureus infected in kunming mouse assessed as reduction in bacterial load in peritoneum at 10 mg/kg, im measured 18 hrs after infection; type: functional, organism-based
Macrophage [10] = test: Immunomodulatory activity in mouse peritoneal macrophage assessed as inhibition of LPS-induced IL-1beta level measured after 24 hrs by ELISA; type: functional, tissue-based; settings: dose 5-20 µg/ml
Staphylococcus aureus [11] = test: Antibacterial activity against vancomycin-resistant Staphylococcus aureus assessed as bactericidal activity incubated at 0 to 90 degree C for 1 hr; type: functional, organism-based
Staphylococcus aureus [12] = test: In vivo antibacterial activity against vancomycin resistant Staphylococcus aureus infected in kunming mouse assessed as reduction in bacterial load in spleen at 10 mg/kg, ip administered 24 hrs before infection; type: functional, organism-based
[13] = molecular target: Mitogen-activated protein kinase 1 and 3 (ERK2 and ERK1) (Mus musculus) (UniProt P63085+Q63844); test: Inhibition of LPS-induced phosphorylation of Erk1/2 in mouse peritoneal macrophage pretreated for 1 hr followed by LPS stimulation measured after 30 mins by Western blot analysis; type: tissue-based; settings: dose 5-20 µg/ml, time 1.5 hrs
Escherichia coli [14] = test: Antimicrobial activity against Escherichia coli ATCC 25922 incubated for 16 to 18 hrs by fluorescence microplate reader analysis; type: functional; settings: time 16-18 hrs
Macrophage [15] = test: Immunomodulatory activity in mouse peritoneal macrophage assessed as inhibition of LPS-induced IL-1beta level measured after 6 hrs by qRT-PCR analysis; type: functional, tissue-based; settings: dose 5-20 µg/ml
Staphylococcus aureus [16] = test: Antimicrobial activity against Staphylococcus aureus IS 08032706 incubated for 16 to 18 hrs by fluorescence microplate reader analysis; type: functional; settings: time 16-18 hrs
[17] = Induction of neutrophil extracellular trap formation in neutrophil (unknown origin) at 10 ug/ml measured after 3 hrs by fluorescence analysis; type: functional; settings: dose 10 µg/ml
Salmonella paratyphi = test: Antimicrobial activity against Salmonella paratyphi IS 738 incubated for 16 to 18 hrs by fluorescence microplate reader analysis; type: functional, Salmonella enterica subsp. enterica serovar Paratyphi A; settings: Salmonella enterica, time 16-18 hrs
Mus musculus [18] = test: Immunomodulatory activity in Kunming mouse infected with vancomycin-resistant Staphylococcus aureus assessed as increased in IL-10 level in peritoneal lavage at 10 mg/kg, ip administered 24 hrs before infection by ELISA; type: functional, organism-based
Candida albicans [19] = test: Antimicrobial activity against Candida albicans IS 08022710 incubated for 16 to 18 hrs by fluorescence microplate reader analysis; type: functional; settings: time 16-18 hrs
RAW264.7 = test: Induction of ROS production in mouse RAW 264.7 cells by fluorescence assay; type: functional, cell-based; settings: dose 10-40 µg/ml
[20] = tested on: Staphylococcus epidermidis; test: Antimicrobial activity against Staphylococcus epidermidis IS 08032706 incubated for 16 to 18 hrs by fluorescence microplate reader analysis; type: functional; settings: time 16-18 hrs
Neutrophil [21] = test: Immunomodulatory activity in neutrophils (unknown origin) assessed as inhibition of LPS-induced IL-6 level at 5 to 20 ug/ml by ELISA; type: functional, cell-based; settings: dose 5-20 µg/ml
Mus musculus [22] = test: Immunomodulatory activity in Kunming mouse infected with vancomycin-resistant Staphylococcus aureus assessed as increased in MCP-1 level in peritoneal lavage at 10 mg/kg, ip administered 24 hrs before infection by ELISA; type: functional, organism-based
Neutrophil [23] = test: Immunomodulatory activity in neutrophils (unknown origin) assessed as inhibition of LPS-induced MCP-1 level at 5 to 20 ug/ml by ELISA; type: functional, cell-based; settings: dose 5-20 µg/ml
[24] = Immunomodulatory activity in mouse peritoneal macrophage assessed as increase in MCP-1 mRNA level at 20 ug/ml measured after 6 hrs by qRT-PCR analysis relative to control; type: functional; settings: dose 20 µg/ml
Mus musculus [25] = test: Immunomodulatory activity in mouse assessed as increase […] of KC in peritoneal cavity at 10 mg/kg, ip measured after 5 to 24 hrs by ELISA; type: functional, organism-based; settings: time 5-24 hrs
Staphylococcus aureus [26] = test: Antibacterial activity against vancomycin-resistant Staphylococcus aureus assessed as bacterial growth inhibition in presence of 100 mmol NaCl; type: functional
Mus musculus [27] = test: Immunomodulatory activity in mouse assessed as increase number of neutrophil in peritoneal cavity at 10 mg/kg, ip measured after 5 to 24 hrs by flow cytometry; type: functional, organism-based; settings: time 5-24 hrs
Staphylococcus aureus [28] = test: Antibacterial activity against FITC-labelled Staphylococcus aureus ATCC 25923 infected in neutrophil cells assessed as entrapment of bacteria by NET releasing neutrophil at 20 to 40 ug/ml by fluorescence analysis; type: functional, organism-based; settings: dose 20-40 µg/ml
Mus musculus [29] = test: Immunomodulatory activity in Kunming mouse infected with vancomycin-resistant Staphylococcus aureus assessed as effect number of neutrophil in peritoneal cavity at 10 mg/kg, ip measured upto 24 hrs by flow cytometry; type: functional, organism-based; settings: time hrs <=24
Candida albicans [30] = test: Antimicrobial activity against Candida albicans IS 08030809 incubated for 16 to 18 hrs by fluorescence microplate reader analysis; type: functional; settings: time 16-18 hrs
Mus musculus [31] = test: Immunomodulatory activity in Kunming mouse infected with vancomycin-resistant Staphylococcus aureus assessed as increased in CXCL1/KC level in peritoneal lavage at 10 mg/kg, ip administered 24 hrs before infection by ELISA; type: functional, organism-based
Staphylococcus aureus [32] = test: Antibacterial activity against vancomycin-resistant Staphylococcus aureus assessed as bacterial growth inhibition in aqueous solution incubated upto 96 hrs; type: functional; settings: time hrs <=96
Escherichia coli [33] = test: Antimicrobial activity against Escherichia coli IS 08040726 incubated for 16 to 18 hrs by fluorescence microplate reader analysis; type: functional; settings: time 16-18 hrs

Mitogen-activated protein kinase 1 and 3 (ERK2 and ERK1) (Mus musculus), sequence (P63085 whole entry, looked up): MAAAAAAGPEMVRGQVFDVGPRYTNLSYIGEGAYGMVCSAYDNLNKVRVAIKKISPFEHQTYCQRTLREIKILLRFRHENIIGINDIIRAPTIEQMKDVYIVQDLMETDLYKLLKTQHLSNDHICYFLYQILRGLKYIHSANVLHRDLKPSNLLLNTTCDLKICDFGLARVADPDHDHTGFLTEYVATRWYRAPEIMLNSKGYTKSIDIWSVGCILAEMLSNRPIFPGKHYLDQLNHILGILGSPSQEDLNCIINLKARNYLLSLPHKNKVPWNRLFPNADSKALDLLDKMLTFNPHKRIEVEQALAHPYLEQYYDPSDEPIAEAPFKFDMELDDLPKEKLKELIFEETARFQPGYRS
Mitogen-activated protein kinase 1 and 3 (ERK2 and ERK1) (Mus musculus), sequence (Q63844 whole entry, looked up): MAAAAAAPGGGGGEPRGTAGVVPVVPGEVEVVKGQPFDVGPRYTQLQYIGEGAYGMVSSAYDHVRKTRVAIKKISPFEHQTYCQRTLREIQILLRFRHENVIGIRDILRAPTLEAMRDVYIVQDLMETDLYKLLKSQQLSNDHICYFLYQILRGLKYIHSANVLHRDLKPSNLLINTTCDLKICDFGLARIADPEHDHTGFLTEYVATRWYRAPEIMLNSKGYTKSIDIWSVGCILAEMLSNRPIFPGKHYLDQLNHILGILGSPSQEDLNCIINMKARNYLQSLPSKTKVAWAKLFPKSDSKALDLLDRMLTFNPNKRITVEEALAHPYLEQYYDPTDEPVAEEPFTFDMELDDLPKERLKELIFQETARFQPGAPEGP

CC[C@H](C)[C@H](NC(=O)[C@@H]1CCCN1C(=O)[C@@H](NC(=O)[C@@H](NC(=O)CNC(=O)CNC(=O)[C@@H](NC(=O)[C@H](Cc1ccccc1)NC(=O)[C@@H](NC(=O)[C@H](CCCCN)NC(=O)[C@@H](NC(=O)[C@H](CCCCN)NC(=O)[C@H](CCCCN)NC(=O)[C@H](Cc1ccccc1)NC(=O)[C@@H](NC(=O)[C@H](CCCCN)NC(=O)[C@H](CCCNC(=N)N)NC(=O)[C@H](Cc1ccccc1)NC(=O)CNC(=O)[C@H](CCCCN)NC(=O)[C@H](CCCCN)NC(=O)[C@@H](NC(=O)[C@H](CCCCN)NC(=O)[C@H](CCCNC(=N)N)NC(=O)[C@H](Cc1ccccc1)NC(=O)[C@H](Cc1ccccc1)NC(=O)[C@H](CCCCN)NC(=O)[C@H](CCCCN)NC(=O)[C@H](Cc1ccccc1)NC(=O)[C@H](CCCNC(=N)N)NC(=O)[C@@H](N)CCCCN)[C@@H](C)CC)[C@@H](C)CC)[C@@H](C)O)[C@@H](C)CC)[C@@H](C)CC)[C@@H](C)O)[C@@H](C)CC)C(=O)O (H-KRFKKFFRKIKKGFRKIFKKTKIFIGGTIPI-OH)
MIC (Nocardia asteroides): 1.17 mg/L (≈ 0.308 µM)
MIC (Candida albicans [1]): 1.17 mg/L (≈ 0.308 µM)
MIC (Staphylococcus aureus [2]): 1.17 mg/L (≈ 0.308 µM)
MIC (Klebsiella pneumoniae): 1.17 mg/L (≈ 0.308 µM)
Activity (Mus musculus [3]): Active
Activity (Nakaseomyces glabratus): 37.47%
inhibition (Macrophage [4]): Dose-dependent effect
Activity [5]: Non-Toxic
MIC (Bacillus cereus): 1.17 mg/L (≈ 0.308 µM)
Activity (Staphylococcus aureus [6]): Dose-dependent effect
inhibition (Macrophage [7]): Dose-dependent effect
inhibition (Macrophage [8]): Dose-dependent effect
Activity (Staphylococcus aureus [9]): Active
inhibition (Macrophage [10]): Dose-dependent effect
Activity (Staphylococcus aureus [11]): Active
Activity (Staphylococcus aureus [12]): Active
inhibition [13]: Dose-dependent effect
MIC (Escherichia coli [14]): 1.17 mg/L (≈ 0.308 µM)
inhibition (Macrophage [15]): Dose-dependent effect
MIC (Staphylococcus aureus [16]): 1.17 mg/L (≈ 0.308 µM)
Activity [17]: 15.65%
MIC (Salmonella paratyphi): 1.17 mg/L (≈ 0.308 µM)
Activity (Mus musculus [18]): Active
MIC (Candida albicans [19]): 1.17 mg/L (≈ 0.308 µM)
Activity (RAW264.7): Dose-dependent effect
MIC [20]: 1.17 mg/L (≈ 0.308 µM)
inhibition (Neutrophil [21]): Active
Activity (Mus musculus [22]): Active
inhibition (Neutrophil [23]): inactive
fold change (FC) [24]: 13
Activity (Mus musculus [25]): Active
MIC (Staphylococcus aureus [26]): < 10 mg/L
Activity (Mus musculus [27]): Active
Activity (Staphylococcus aureus [28]): Active
Activity (Mus musculus [29]): inactive
MIC (Candida albicans [30]): 1.17 mg/L (≈ 0.308 µM)
Activity (Mus musculus [31]): Active
MIC (Staphylococcus aureus [32]): 4.96 mg/L (≈ 1.3 µM)
MIC (Escherichia coli [33]): 1.17 mg/L (≈ 0.308 µM)
